This is an account of results in the NIST ThermoML archive (doi:10.1016/j.tca.2018.05.015).

The conditions of this series: for mass density: 101.33 kPa, X-ray diffraction; for Triple point temperature: DSC.

Numbers after ± are expanded uncertainties.

With `CC(C)(C#N)N=NC(C)(C)C#N` [2,2'-dimethyl-2,2'-azodipropionitrile], the mass density is, setting by setting: (346.15 K, Crystal 2) 1100 ± 22 kg/m3; (356.15 K, Crystal 1) 1096 ± 22 kg/m3. Moreover, the Triple point temperature is reported as 373.15 ± 5 K (Crystal 1) and 351.15 ± 5 K (Crystal 2).
